Publication PMC9090415, “Discovery of small molecule inhibitors of Plasmodium falciparum apicoplast DNA polymerase” (Journal of Enzyme Inhibition and Medicinal Chemistry, 2022)

Target: P. falciparum apicoplast DNA polymerase (Pf-apPOL) (Plasmodium falciparum, UniProt Q8ILY1)
Assay: Fluorescence-based high-throughput DNA polymerase assay (molecular beacon), primary screen and dose-response
Type: biochemical
Settings: for DNA Pol: 90 min, 10 µM; for % inhibition apPOL 180' 2.5 / % inhibition apPOL 180' 5 / % inhibition apPOL 180' 10 / % inhibition apPOL 180' 20 / % inhibition apPOL 180' 40 / % inhibition apPOL 180' 80: read at 180'
Outline: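 Single-point screening used 10 µM compound with 20 nM polymerase, 20 nM hairpin substrate and 6 µM dNTPs for 90 min at 25 °C. Confirmatory titrations (2.5–80 µM) followed fluorescence at three times, and IC50 was derived from a fit including a cooperativity term n.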

Chain of P. falciparum apicoplast DNA polymerase (Pf-apPOL) (Q8ILY1 entry or part of it): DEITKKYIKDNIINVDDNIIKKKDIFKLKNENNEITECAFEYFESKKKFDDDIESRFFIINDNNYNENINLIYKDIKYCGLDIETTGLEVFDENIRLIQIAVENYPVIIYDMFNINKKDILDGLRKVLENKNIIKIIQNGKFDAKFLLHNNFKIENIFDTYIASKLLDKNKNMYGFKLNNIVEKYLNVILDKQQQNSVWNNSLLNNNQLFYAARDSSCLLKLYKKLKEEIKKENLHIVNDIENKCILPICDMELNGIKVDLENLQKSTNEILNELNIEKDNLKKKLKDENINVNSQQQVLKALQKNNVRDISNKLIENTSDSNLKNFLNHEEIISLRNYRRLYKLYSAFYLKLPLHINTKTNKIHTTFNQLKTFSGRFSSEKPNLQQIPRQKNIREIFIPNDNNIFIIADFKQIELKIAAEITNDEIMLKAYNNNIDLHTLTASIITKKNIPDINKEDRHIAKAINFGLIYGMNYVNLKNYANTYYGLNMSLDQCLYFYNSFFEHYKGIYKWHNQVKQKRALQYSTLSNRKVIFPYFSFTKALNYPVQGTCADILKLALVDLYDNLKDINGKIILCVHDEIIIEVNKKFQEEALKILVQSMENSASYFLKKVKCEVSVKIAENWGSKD

With `CC(C)CC(C(=O)O)N1C(=O)C2C3C=CC(C2C1=O)C1C(=O)N(C(CC(C)C)C(=O)O)C(=O)C31` (centres unmarked) [KU0193449] the “DNA Pol” value (186 hits, DNA Pol (screen value), unit not given) was 28, the “DNA Pol” value ('DNA Pol' (screen value), unit not given) was 28 and the “% inhibition Apo pol 10' 2.5” value (DRC-1, read at 10', concentration 2.5) was 0%. The “% inhibition Apo pol 10' 5” value (DRC-1, read at 10', concentration 5) was 0.7522%, the “% inhibition Apo pol 10' 10” value (DRC-1, read at 10', concentration 10) was 13.4113% and the “% inhibition Apo pol 10' 20” value (DRC-1, read at 10', concentration 20) was 21.694%. The “% inhibition Apo pol 10' 40” value (DRC-1, read at 10', concentration 40) was 38.6815%, the “% inhibition Apo pol 10' 80” value (DRC-1, read at 10', concentration 80) was 61.0106% and the “% inhibition Apol 90' 2.5” value (DRC-1, read at 90', concentration 2.5) was 5.482%. For the same molecule, the “% inhibition Apol 90' 5” value (DRC-1, read at 90', concentration 5) was 4.361%, the “% inhibition Apol 90' 10” value (DRC-1, read at 90', concentration 10) was 18.2004% and the “% inhibition Apol 90' 20” value (DRC-1, read at 90', concentration 20) was 26.7933%. The “% inhibition Apol 90' 40” value (DRC-1, read at 90', concentration 40) was 43.0787%, the “% inhibition Apol 90' 80” value (DRC-1, read at 90', concentration 80) was 61.6554% and the “% inhibition apPOL 180' 2.5” value (DRC-1, concentration 2.5) was 11.5947%. For the same molecule, the “% inhibition apPOL 180' 5” value (DRC-1, concentration 5) was 8.787%, the “% inhibition apPOL 180' 10” value (DRC-1, concentration 10) was 22.2545% and the “% inhibition apPOL 180' 20” value (DRC-1, concentration 20) was 29.0446%. The “% inhibition apPOL 180' 40” value (DRC-1, concentration 40) was 41.2526%, the “% inhibition apPOL 180' 80” value (DRC-1, concentration 80) was 55.1992% and the “% inhibition Apo pol 5'” value (DRC-2, concentration 20) was 13%. The “% inhibition Apol 40'” value (DRC-2, concentration 20) was 20%, the “% inhibition ApPOL 90'” value (DRC-2, concentration 20) was 20% and the “% inhibition apPOL 180'” value (DRC-2, concentration 20) was 13%. The “% inhibition Apo pol 5' 2.5” value (DRC-2, read at 5', concentration 2.5) was -1.41%, the “% inhibition Apo pol 5' 5” value (DRC-2, read at 5', concentration 5) was 2.69% and the “% inhibition Apo pol 5' 10” value (DRC-2, read at 5', concentration 10) was 10%. For the same molecule, the “% inhibition Apo pol 5' 20” value (DRC-2, read at 5', concentration 20) was 13%, the “% inhibition Apo pol 5' 40” value (DRC-2, read at 5', concentration 40) was 23% and the “% inhibition Apo pol 5' 80” value (DRC-2, read at 5', concentration 80) was 31%. For the same molecule, the “% inhibition Apol 40' 2.5” value (DRC-2, read at 40', concentration 2.5) was -0.315%, the “% inhibition Apol 40' 5” value (DRC-2, read at 40', concentration 5) was 4.49% and the “% inhibition Apol 40' 10” value (DRC-2, read at 40', concentration 10) was 12%. The “% inhibition Apol 40' 20” value (DRC-2, read at 40', concentration 20) was 20%, the “% inhibition Apol 40' 40” value (DRC-2, read at 40', concentration 40) was 33% and the “% inhibition Apol 40' 80” value (DRC-2, read at 40', concentration 80) was 49%. The “% inhibition ApPOL 90' 2.5” value (DRC-2, read at 90', concentration 2.5) was -0.778%, the “% inhibition ApPOL 90' 5” value (DRC-2, read at 90', concentration 5) was 4.24% and the “% inhibition ApPOL 90' 10” value (DRC-2, read at 90', concentration 10) was 11%. For the same molecule, the “% inhibition ApPOL 90' 20” value (DRC-2, read at 90', concentration 20) was 20%, the “% inhibition ApPOL 90' 40” value (DRC-2, read at 90', concentration 40) was 34% and the “% inhibition ApPOL 90' 80” value (DRC-2, read at 90', concentration 80) was 51%. The “% inhibition apPOL 180' 2.5” value (DRC-2, concentration 2.5) was -5%, the “% inhibition apPOL 180' 5” value (DRC-2, concentration 5) was -2.57% and the “% inhibition apPOL 180' 10” value (DRC-2, concentration 10) was 5%. For the same molecule, the “% inhibition apPOL 180' 20” value (DRC-2, concentration 20) was 13%, the “% inhibition apPOL 180' 40” value (DRC-2, concentration 40) was 28% and the “% inhibition apPOL 180' 80” value (DRC-2, concentration 80) was 47%.

For `Cc1ccc2c(C(=O)NCCc3cccnc3)cc(NC(=O)C(C)C)cc2n1` [KU0206096], the “DNA Pol” value ("DNA Pol" of the 186 hits list (screen value)) was 22, the “% inhibition Apo pol 10'” value (DRC-1, concentration 2.5) was 2.289% and the “% inhibition Apo pol 10'” value (DRC-1, concentration 5) was 10.1779%. The “% inhibition Apo pol 10'” value (DRC-1, concentration 10) was 28.6368%, the “% inhibition Apo pol 10'” value (DRC-1, concentration 20) was 37.57% and the “% inhibition Apo pol 10'” value (DRC-1, concentration 40) was 75.2311%. For the same molecule, the “% inhibition Apo pol 10'” value (DRC-1, concentration 80) was 89.4827%, the “% inhibition Apol 90'” value (DRC-1, concentration 2.5) was -0.2653% and the “% inhibition Apol 90'” value (DRC-1, concentration 5) was 3.264%. For the same molecule, the “% inhibition Apol 90'” value (DRC-1, concentration 10) was 15.2748%, the “% inhibition Apol 90'” value (DRC-1, concentration 20) was 20.9182% and the “% inhibition Apol 90'” value (DRC-1, concentration 40) was 58.3993%. For the same molecule, the “% inhibition Apol 90'” value (DRC-1, concentration 80) was 83.2702%, the “% inhibition apPOL 180'” value (DRC-1, concentration 2.5) was -4.525% and the “% inhibition apPOL 180'” value (DRC-1, concentration 5) was -3.235%. The “% inhibition apPOL 180'” value (DRC-1, concentration 10) was 5.405%, the “% inhibition apPOL 180'” value (DRC-1, concentration 20) was 7.166% and the “% inhibition apPOL 180'” value (DRC-1, concentration 40) was 41.4073%. For the same molecule, the “% inhibition apPOL 180'” value (DRC-1, concentration 80) was 75.1879%, the “% inhibition Apo pol 5'” value (DRC-2, concentration 2.5) was -0.312% and the “% inhibition Apo pol 5'” value (DRC-2, concentration 5) was 5.56%. The “% inhibition Apo pol 5'” value (DRC-2, concentration 10) was 24%, the “% inhibition Apo pol 5'” value (DRC-2, concentration 20) was 40% and the “% inhibition Apo pol 5'” value (DRC-2, concentration 40) was 49%. For the same molecule, the “% inhibition Apo pol 5'” value (DRC-2, concentration 80) was 49%, the “% inhibition Apol 40'” value (DRC-2, concentration 2.5) was 1.82% and the “% inhibition Apol 40'” value (DRC-2, concentration 5) was 5.58%. The “% inhibition Apol 40'” value (DRC-2, concentration 10) was 24%, the “% inhibition Apol 40'” value (DRC-2, concentration 20) was 42% and the “% inhibition Apol 40'” value (DRC-2, concentration 40) was 62%. The “% inhibition Apol 40'” value (DRC-2, concentration 80) was 70%, the “% inhibition ApPOL 90'” value (DRC-2, concentration 2.5) was 1.09% and the “% inhibition ApPOL 90'” value (DRC-2, concentration 5) was 5.45%. For the same molecule, the “% inhibition ApPOL 90'” value (DRC-2, concentration 10) was 21%, the “% inhibition ApPOL 90'” value (DRC-2, concentration 20) was 39% and the “% inhibition ApPOL 90'” value (DRC-2, concentration 40) was 63%. For the same molecule, the “% inhibition ApPOL 90'” value (DRC-2, concentration 80) was 75%, the “% inhibition apPOL 180'” value (DRC-2, concentration 2.5) was -1.29% and the “% inhibition apPOL 180'” value (DRC-2, concentration 5) was 2.66%. For the same molecule, the “% inhibition apPOL 180'” value (DRC-2, concentration 10) was 13%, the “% inhibition apPOL 180'” value (DRC-2, concentration 20) was 28% and the “% inhibition apPOL 180'” value (DRC-2, concentration 40) was 57%. For the same molecule, the “% inhibition apPOL 180'” value (DRC-2, concentration 80) was 78% and the “DNA Pol” value (primary screen value, DNA Pol) was 22.
